The numbers were not newly measured in article PMC6854850 (MicrobiologyOpen, 2019), which cites them from elsewhere.

In this data set the target is T1, OmpP (Escherichia coli, UniProt P34210).
T1 sequence (P34210 24-315): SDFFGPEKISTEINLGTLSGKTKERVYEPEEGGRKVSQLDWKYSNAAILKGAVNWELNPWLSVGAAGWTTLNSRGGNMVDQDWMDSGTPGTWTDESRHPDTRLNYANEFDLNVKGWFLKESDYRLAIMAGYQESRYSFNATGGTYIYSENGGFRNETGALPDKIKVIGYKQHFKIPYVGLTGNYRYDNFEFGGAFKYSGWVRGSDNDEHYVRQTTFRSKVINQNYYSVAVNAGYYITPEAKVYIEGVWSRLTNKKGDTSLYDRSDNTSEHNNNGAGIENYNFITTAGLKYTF
Particulars: ref Hwang et al., 2007.

protamine: the “cleavage of AMP by OmpP, in words” value is on record as “has been shown to cleave”.
